Measured values taken from ChEMBL document CHEMBL4396870, “Pharmacological Chaperones for the Treatment of α-Mannosidosis” (J Med Chem, 2019).
Changes are numbered by the printed parent chain. Active and inactive are the calls of the source. No cut-off for these calls is given here.

How the values were obtained:
[1] = system: T1, Lysosomal alpha-mannosidase (Homo sapiens), O00754 [L352P]; assay: Chaperone activity at human Lysosomal alpha-mannosidase L352P mutant transfected in human […] knockout HAP1 cells assessed as enzyme activity enhancement at 0.2 uM incubated for 96 hrs relative to control
T1 sequence (whole entry): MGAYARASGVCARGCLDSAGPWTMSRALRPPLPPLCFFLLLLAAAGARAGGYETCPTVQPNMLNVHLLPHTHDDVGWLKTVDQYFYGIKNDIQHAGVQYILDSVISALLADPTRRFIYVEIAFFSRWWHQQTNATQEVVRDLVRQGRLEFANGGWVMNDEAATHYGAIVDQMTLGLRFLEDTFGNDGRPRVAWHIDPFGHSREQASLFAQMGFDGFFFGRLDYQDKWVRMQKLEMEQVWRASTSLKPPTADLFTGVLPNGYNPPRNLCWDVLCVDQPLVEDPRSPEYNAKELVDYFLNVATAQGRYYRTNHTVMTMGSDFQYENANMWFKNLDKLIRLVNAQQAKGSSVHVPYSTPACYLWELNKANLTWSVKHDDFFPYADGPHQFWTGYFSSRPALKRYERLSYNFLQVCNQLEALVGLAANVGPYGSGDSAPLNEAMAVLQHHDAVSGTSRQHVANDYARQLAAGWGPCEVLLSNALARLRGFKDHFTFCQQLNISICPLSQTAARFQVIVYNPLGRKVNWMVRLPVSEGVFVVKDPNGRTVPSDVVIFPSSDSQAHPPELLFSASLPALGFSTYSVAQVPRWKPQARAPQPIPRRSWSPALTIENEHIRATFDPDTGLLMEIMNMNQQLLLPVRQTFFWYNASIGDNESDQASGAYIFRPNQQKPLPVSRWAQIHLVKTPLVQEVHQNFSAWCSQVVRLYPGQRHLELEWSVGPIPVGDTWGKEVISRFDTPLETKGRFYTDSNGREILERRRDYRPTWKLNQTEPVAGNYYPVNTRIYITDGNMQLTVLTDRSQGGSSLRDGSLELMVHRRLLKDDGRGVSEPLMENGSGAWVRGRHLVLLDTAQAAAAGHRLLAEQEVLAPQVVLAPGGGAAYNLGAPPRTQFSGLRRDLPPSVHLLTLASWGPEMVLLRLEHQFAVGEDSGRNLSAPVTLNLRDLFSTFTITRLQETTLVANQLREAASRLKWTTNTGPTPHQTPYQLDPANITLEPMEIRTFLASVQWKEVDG

[2] = target: T2, Lysosomal alpha-mannosidase (Homo sapiens) (UniProt O00754); assay: Chaperone activity at Lysosomal alpha-mannosidase in wild-type human fibroblasts assessed as effect on Lysosomal alpha-mannosidase activity at 0.002 to 0.02 uM using 4-methylumbelliferone alpha-D-mannopyranoside as a reporter substrate incubated for 4 days by fluorescence method relative to control
T2 sequence (whole entry): T1 sequence (whole entry) with P352L

Row | Compound | Activity [1] | Activity [2]
1 | COC[C@H]1O[C@@H]2O[C@H]3[C@H](OC)[C@@H](OC)[C@@H](O[C@H]4[C@H](OC)[C@@H](OC)[C@@H](O[C@H]5[C@H](OC)[C@@H](OC)[C@@H](O[C@H]6[C@H](OC)[C@@H](OC)[C@@H](O[C@H]7[C@H](OC)[C@@H](OC)[C@@H](O[C@H]8[C@H](OC)[C@@H](OC)[C@@H](O[C@H]1[C@H](OC)[C@H]2OC)O[C@@H]8COC)O[C@@H]7COC)O[C@@H]6COC)O[C@@H]5COCc1cn(CCCCCCN[C@@H]2[C@@H](O)[C@@H](O)[C@H](O)[C@H]5COC(=O)N52)nn1)O[C@@H]4COC)O[C@@H]3COC | 10% | inactive
2 | CCCc1cn(CCCCCCN[C@@H]2[C@@H](O)[C@@H](O)[C@H](O)[C@H]3COC(=O)N32)nn1 |  | inactive
3 | CC(C)(C)OC(=O)NCCCCCCCCCN[C@@H]1[C@@H](O)[C@@H](O)[C@H](O)[C@H]2COC(=O)N21 | 0% | 
